Measurements from US12246044B2, “Bacterial and cell compositions for the treatment of colorectal cancer and methods for assessing a prognosis for patients having the same” (priority 2017, dated 2025).

Key:
ileal mucosae = test: qRT-PCR of immune gene transcripts in ileal mucosae of avatar mice; type: in vivo; conditions: avatar responders compared to avatar non-responders
Method: Total RNA from gut biopsies was extracted with RNeasy Mini Kit (Qiagen) and then reverse transcribed into cDNA with the SuperScript III Reverse Transcriptase and the RNaseOUT™ Recombinant Ribonuclease Inhibitor (Life Technologies, Saint Aubin, France), in the presence of random primers (Promega, Charbonnieres, France) and the Deoxynucleoside Triphosphate Set, PCR grade (Roche Diagnostics, Meylan, France). cDNA was analyzed by real-time quantitative PCR (RT-qPCR) with the TaqMan method with TaqMan® Gene Expression Assays using the Universal Master Mix II (Invitrogen) according to the manufacturer's instructions using the 7500 Fast Real Time PCR system (Applied Biosystems). Expression was normalized to the expression of the housekeeping gene of Beta 2 Microglobulin by means of the 2^−ΔCt method.

[1] = tested on: small intestine enteroids; test: OXA treatment of stem cell derived small intestine enteroids in vitro; type: cell-based, C57BL/6J mice; conditions: culminating in calreticulin cell surface exposure, data not shown
Method: Crypts were isolated and enriched from the ileum of 8-12 week old C57BL/6J mice as previously described (24) with the following modifications. Briefly, washed pieces of ileum were incubated in crypt chelating buffer (2 mM EDTA in PBS) for 30 minutes on ice. Following the removal of crypt chelating buffer, fragments were vigorously rinsed 3 times with PBS containing 10% FCS and filtered through a 70-μm cell strainer (BD Bioscience). Crypts were pelleted, washed with Advanced DMEM/F12 (ADF) (Invitrogen), resuspended in 1 mL of Matrigel growth factor reduced basement membrane matrix (Corning) and 50 uL drops were pipetted into a 24 well plate. Crypts were overlayed with ADF containing the following: 100 U/mL penicillin G sodium, 100 μg/mL streptomycin sulphate, 2 mM L-glutamine, 10 mM HEPES, 1× N2 supplement, 1× B27 supplement, 50 ng/mL mEGF, 100 ng/mL mNoggin (Peprotech, Hamburg, Germany), N-acetylcysteine (Sigma) (reagents from Invitrogen unless otherwise indicated) and 10% conditioned medium of R-Spondin-1 transfected HEK 293T cells.
IEC suspensions were obtained from enteroids by means of 3 wash dissociation method, as described above. […]

ileal and colonic IEC = test: Immunohistochemistry of cleaved caspase-3 in colon and ileal mucosae after OXA i.p.; type: in vivo, mice; conditions: 6 h after OXA i.p.; ileal versus colonic IEC
Method: Donor mice were treated with oxaliplatin (10 mg/kg) i.p. for 6 h to induce gut cell death. Control animals were treated with vehicle (PBS) alone. The composition of the commensal gut microbiota in the treated and non-treated groups was maintained synchronized by cohousing. At the end of the treatment, mice were euthanized and the ileum was collected to isolate IEC. One million IECs were then injected s.c. into the left flank of the recipient mice. The procedure was repeated once, 7 days later. Tumor challenge was performed on the right flank 7 days after the last immunization, with doses which obtain 100% of tumor incidence in naïve mice, MC38 (1×10^6 cells), MCA205 (0.8×10^6 cells), CT26 (1×10^6 cells) and 4T1 (0.3×10^6 cells).
FFPE gut sections were deparaffinised and rehydrated through a series of graded alcohols and distilled water. Antigen retrieval was performed by pre-treating sections with 0.01 M sodium citrate buffer (pH 6.0, Diapath) for 30 min in a 98° C. water bath. Endogenous peroxidase activity was inhibited by treating sections with 3% […] (#S202386, DAKO) for 10 min. Sections were blocked with IHC/ISH Super Blocking (#PV6122, LeicaBiosystem) for 10 min. […] Peroxidases were detected with Di Amino Benzidine-peroxidase substrate kit (DAKO), and counterstained with Mayer's haematoxylin. […]

MC38 tumors = test: FMT avatar mice (GF mice colonized with PCAC patient colonic content), MC38, OXA; type: in vivo, C57BL/6J mice; conditions: 12 PCAC patient feces tested
Method: (§1) Syngeneic C57BL/6J mice were implanted with 1×10^6 MC38 WT cells subcutaneously and treated intraperitoneally (i.p.) when tumors were 20 to 30 mm^2 in size with 10 mg/kg oxaliplatin or vehicule (PBS). The composition of the commensal gut microbiota in the treated and non-treated groups was maintained synchronized by cohousing. Tumor size was routinely monitored every 3 days by means of a caliper.
Frozen fecal samples were thawed and thoroughly vortexed. Large particulate material was allowed to settle by gravity. 200 μl of supernatant was administered in a single dose by oral gavage. Additionally, an extra 100 μl was topically applied onto the fur of each animal. The resulting gnotobiotic mice were maintained in positive pressurized isolators with irradiated food and autoclaved water. […]
Data analyses and representations were performed either with the statistical environment R, Microsoft Excel (Microsoft Co., Redmont, WA, USA) or Prism 5 (GraphPad, San Diego, CA, USA). Tumor growth was analysed with dedicated software (https://kroemerlab.shinyapps.io/TumGrowth). Briefly, data was subjected to a linear mixed effect modeling applied to log pre-processed tumor surfaces. p-values were calculated by testing jointly whether both tumor growth slopes and intercepts (on a log scale) were different between treatment groups of interests. […]

naïve CD4+ T cells = test: Differentiation of naive CD4+ T cells into Th1 cells by DCs charged with HIEC-6 (IFNg ELISA); type: cell-based, human; conditions: DCs charged with allogeneic HIEC-6 pre-exposed to bacteria and/or OXA; 6 healthy volunteers
Method: CD14+ cells were isolated from PBMC obtained from healthy donors (Miltenyi Kit). Monocytes were differentiated into DCs by adding GM-CSF and IL-4 in the culture medium for 6 days. On day 6, immature DCs were harvested and charged with apoptotic intestinal epithelial cells.
For apoptotic IEC cells preparation, HIEC-6 cells (ATCC) were treated with bacteria 1 h, OXA 3 h, and ATB 1 h, and then left ON. The next morning, Apoptotic cells were harvested, washed 3× in PBS and added to the DC culture.
Naïve CD4 T cells were isolated from the matched donor for each experiment (Miltenyi kit) and added to the DC-IEC culture at a 10:1 ratio. The final co-culture was incubated for 6 days. On day 6, anti-CD3 and anti-CD28 mAb were added to the culture. After 24 h incubation supernatants were assayed for IFNg by ELISA (Biolegend).

MC38 cancers = test: MC38 tumor model in SPF mice, OXA + anti-PD-1 Abs plus oral gavage of live bacteria; type: in vivo, C57BL/6J mice; conditions: SPF mice (eubiosis), oral gavage of 10^9 cfu live bacteria before and after OXA
Method: as §1
PD-1 blockade was performed by i.p. treatment with anti-PD-1 mAbs (RMP1-14; 200 μg/mouse) or respective isotype controls (2A3) (all antibodies from Bioxcell).
Erysipelothrix tonsillarum and Solobacterium moorei were provided by Prof. Ivo Gomperts Boneca, Institut Pasteur, France. Bacteroides fragilis, Alistipes onderdonkii, Erysipelatoclostridium ramosum, Dialister invisus, Paraprevotella clara isolates were isolated in our laboratory from ileal mucus from patients used in vaccination experiments. Species were grown on COS plates in aerobic or an anaerobic atmosphere created using anaerobic generators (Biomerieux) at 37° C. for 24-72 hrs. Colonization of ATB pre-treated or GF C57BL/6J mice was performed by oral gavage with 100 μl of suspension containing 1×10^9 bacteria in PBS. For bacterial gavage, suspensions of 10^9 CFU/ml were obtained using a fluorescence spectrophotometer (Eppendorf) at an optical density of 1 measured at a wavelength of 600 nm. […]

Row | Compound | ileal TH1/TFH immune tone (Tbx21, Bcl6, Il27, Gata3, Ahr expression) in response to OXA (ileal mucosae) | apoptosis of enteroids [1] | apoptosis-associated cleavage of caspase-3 in vivo (ileal and colonic IEC) | patient feces inducing complete resistance to OXA (avatar non-responders) (MC38 tumors) | patient feces resulting in antitumor efficacy of OXA comparable to SPF mice (avatar responders) (MC38 tumors) | HIEC-6 rendered immunogenic (differentiation of T cells into Th1 cells, IFN-gamma) (naïve CD4+ T cells) | OXA+anti-PD-1 Ab-mediated anticancer effects against established MC38 cancers (MC38 cancers)
1 | O=C1[O][Pt]2([NH][C@@H]3CCCC[C@H]3[NH]2)[O]C1=O [OXA, Oxaliplatin] | decrease of the ileal TH1/TFH immune tone | triggered a dose-dependent apoptosis | far more prominent in ileal than colonic IEC | 4 | 8/12 |  | 
2 | Bacteroides fragilis |  |  |  |  |  | rendered immunogenic | improved OXA+anti-PD-1 Ab-mediated anticancer effects
